Results: patent US10501522B2, “Peptides and combination of peptides for use in immunotherapy against various tumors” (IMMATICS BIOTECHNOLOGIES GMBH, priority 2015, dated 2019)

System: CD8+ T cells
Assay: In vitro T-cell priming assay with aAPCs loaded with peptide/MHC and anti-CD28, pMHC multimer readout
Assay type: cell-based, human
Details: for Wells positive [%]: in vitro immunogenicity, HLA-A*02 restricted peptides, percentage of positive wells (among evaluable); for in vitro immunogenicity: wells: percentage of positive wells
Text: In order to obtain information regarding the immunogenicity of the TUMAPs of the present invention, the inventors performed investigations using an in vitro T-cell priming assay based on repeated stimulations of CD8+ T cells with artificial antigen presenting cells (aAPCs) loaded with peptide/MHC complexes and anti-CD28 antibody.
In order to perform in vitro stimulations by artificial antigen presenting cells loaded with peptide-MHC complex (pMHC) and anti-CD28 antibody, the inventors first isolated CD8+ T cells from fresh HLA-A*02 leukapheresis products via positive selection using CD8 microbeads (Miltenyi Biotec, Bergisch-Gladbach, Germany) of healthy donors obtained from the University clinics Mannheim, Germany, after informed consent. PBMCs and isolated CD8+ lymphocytes were incubated in T-cell medium (TCM) until use consisting of RPMI-Glutamax (Invitrogen, Karlsruhe, Germany) supplemented with 10% heat inactivated human AB serum (PAN-Biotech, Aidenbach, Germany), 100 U/ml Penicillin/100 μg/ml Streptomycin (Cambrex, Cologne, Germany), 1 mM sodium pyruvate (CC Pro, Oberdorla, Germany), 20 μg/ml Gentamycin (Cambrex). 2.5 ng/ml IL-7 (PromoCell, Heidelberg, Germany) and 10 U/ml IL-2 (Novartis Pharma, Nürnberg, Germany) were also added to the TCM at this step. Generation of pMHC/anti-CD28 coated beads, T-cell stimulations and readout was performed in a highly defined in vitro system using four different pMHC molecules per stimulation condition and 8 different pMHC molecules per readout condition.
The purified co-stimulatory mouse IgG2a anti human CD28 Ab 9.3 (Jung et al., 1987) was chemically biotinylated using Sulfo-N-hydroxysuccinimidobiotin as recommended by the manufacturer (Perbio, Bonn, Germany). Beads used were 5.6 μm diameter streptavidin coated polystyrene particles (Bangs Laboratories, Illinois, USA).
pMHC used for positive and negative control stimulations were A*0201/MLA-001 (peptide […] (SEQ ID NO. 289) from modified Melan-A/MART-1) and A*0201/DDX5-001 ([…] from DDX5, SEQ ID NO. 290), respectively.
800.000 beads/200 μl were coated in 96-well plates in the presence of 4×12.5 ng different biotin-pMHC, washed and 600 ng biotin anti-CD28 were added subsequently in a volume of 200 μl. Stimulations were initiated in 96-well plates by co-incubating […] CD8+ T cells with 2×10^5 washed coated beads in 200 μl TCM supplemented with 5 ng/ml IL-12 (PromoCell) for 3 days at 37° C. Half of the medium was then exchanged by fresh TCM supplemented with 80 U/ml IL-2 and incubating was continued for 4 days at 37° C. This stimulation cycle was performed for a total of three times. For the pMHC multimer readout using 8 different pMHC molecules per condition, a two-dimensional combinatorial coding approach was used as previously described (Andersen et al., 2012) with minor modifications encompassing coupling to 5 different fluorochromes. Finally, multimeric analyses were performed by staining the cells with Live/dead near IR dye (Invitrogen, Karlsruhe, Germany), CD8-FITC antibody clone SK1 (BD, Heidelberg, Germany) and fluorescent pMHC multimers. For analysis, a BD LSRII SORP cytometer equipped with appropriate lasers and filters was used. Peptide specific cells were calculated as percentage of total CD8+ cells. Evaluation of multimeric analysis was done using the FlowJo software (Tree Star, Oreg., USA). In vitro priming of specific multimer+ CD8+ lymphocytes was detected by comparing to negative control stimulations.

[1] = HLA-A*02 healthy donor CD8+ T cells, three stimulation cycles

Substance | Wells positive [%] | other results
4 (VLFGELPAL; listed as Homo sapiens) [compound 4] | + (<20% = +) | 
9 (SLITGQDLLSV; listed as Homo sapiens) [compound 9] | + (<20% = +) | 
14 (YTFSGDVQL; listed as Homo sapiens) [compound 14] | + (<20% = +) | 
17 (GLLPSAESIKL; listed as Homo sapiens) [compound 17] | + (<20% = +) | 
27 (GLLGKVTSV; listed as Homo sapiens) [compound 27] | + (<20% = +) | 
29 (KMISAIPTL; listed as Homo sapiens) [compound 29] | + (<20% = +) | 
34 (TLNTLDINL; listed as Homo sapiens) [compound 34] | ++++ (≥70% = ++++) | 
35 (VIIKGLEEI; listed as Homo sapiens) [compound 35] | + (<20% = +) | 
39 (YLEDGFAYV; listed as Homo sapiens) [compound 39] | ++++ (≥70% = ++++) | 
50 (ILLSVLHQL; listed as Homo sapiens) [compound 50] | + (<20% = +) | 
66 (AMFPDTIPRV; listed as Homo sapiens) [compound 66] | + (<20% = +) | 
77 (ALYGNVQQV; listed as Homo sapiens) [compound 77] | + (<20% = +) | 
89 (SLAETIFIV; listed as Homo sapiens) [compound 89] | + (<20% = +) | 
97 (KLFEKSTGL; listed as Homo sapiens) [compound 97] | + (<20% = +) | 
101 (SLLEVNEASSV; listed as Homo sapiens) [compound 101] | + (<20% = +) | 
102 (GLYPVTLVGV; listed as Homo sapiens) [compound 102] | + (<20% = +) | 

Substance | Wells positive [%] | other results
121 (ALYVQAPTV; listed as Homo sapiens) [compound 121] | + (<20% = +) | 
157 (ILQDGQFLV; listed as Homo sapiens) [compound 157] | + (<20% = +) | 
233 (SLFESLEYL; listed as Homo sapiens) [compound 233] | + (<20% = +) | 
236 (KMSELQTYV; listed as Homo sapiens) [compound 236] | + (<20% = +) | 
242 (KLQEEIPVL; listed as Homo sapiens) [compound 242] | + (<20% = +) | 
246 (ALAGIVTNV; listed as Homo sapiens) [compound 246] | + (<20% = +) | 
254 (ALGDKFLLRV; listed as Homo sapiens) [compound 254] | + (<20% = +) | 
255 (FLMKNSDLYGA; listed as Homo sapiens) [compound 255] | + (<20% = +) | 
257 (KLIDHQGLYL; listed as Homo sapiens) [compound 257] | + (<20% = +) | 
260 (ALNESLVEC; listed as Homo sapiens) [compound 260] | + (<20% = +) | 
263 (SIIEYLPTL; listed as Homo sapiens) [compound 263] | + (<20% = +) | 
264 (TLHDQVHLL; listed as Homo sapiens) [compound 264] | + (<20% = +) | 
267 (YLLDMPLWYL; listed as Homo sapiens) [compound 267] | + (<20% = +) | 
287 (KIQEILTQV; listed as Homo sapiens) [compound 287] |  | in vitro immunogenicity: wells [1]: + (<20% = +)
288 (SLYKGLLSV; listed as Homo sapiens) [compound 288] |  | in vitro immunogenicity: donors (percentage of positive donors, HLA-A*02 healthy donor CD8+ T cells, three stimulation cycles): ++++ (≥70% = ++++); in vitro immunogenicity: wells [1]: ++ (20%-49% = ++)
